Entries after “also recorded” stand apart in the source; their conditions may differ. Like-named read-outs stand apart in the source and are kept apart here.
Assays:
rabbits [1] = assay: In vivo study of intraocular pressure reducing activity, intracameral injection
Description: (§1) Pyridine-1,2,3,6-tetrahydro-5-(5-isoxazolyl)-1-methyl-ethanedioate ("test compound") or pilocarpine were applied either topically into the eyes of owl monkeys (200 µg in 10 µl) or intracamerally into the eye of rabbits (10 µg in 20 µl). Control animals were treated with a saline vehicle. Pupil diameter and IOP were measured for 0-6 hours. IOP was measured using pneumatometer (Digilab/ Biorad) and pupil diameter was measured using Optistick ruler (Allergan). Animals used in these studies had normal intraocular pressure.
(§2) Muscarinic activity was determined by treatment with atropine (muscarinic antagonist). In rabbits 5 µg atropine was coinjected with the test compounds and in owl monkey 5 µg atropine (10 µl) was applied 30 minutes before treatment with the test compound.
(§3) Intraocular pressure (mmHg) or pupil diameter (mm) were expressed as changes from time 0.

owl monkeys [2] = assay: In vivo study of intraocular pressure reducing activity, topical application
Description: as §1, §2, §3

rabbits [3] = assay: Pupil diameter (miosis), intracameral injection
Description: as §1, §2, §3

owl monkeys [4] = assay: Pupil diameter (miosis), topical application
Description: as §1, §2, §3

[5] = system: cat ciliary smooth muscle; assay: In vitro contraction of isolated ciliary smooth muscle in organ bath; assay type: cell-based; settings: for EC50: cumulative dose response, 37°C, read-out: ED50 (concentration that caused 50% of maximum contraction)
Description: (§4) Iris sphincter and ciliary smooth muscles were excised from freshly enucleated cat eyes. The tissues were placed in an organ bath containing Tyrode's solution (composition in mM: NaCl 137, KCl 2.7, CaCl2 1.8, MgCl2 1.05, NaHCO3 11.9, NaH2PO4 0.42, D-glucose 5.6) at 37°C, aerated with 95% oxygen and 5% carbon dioxide. One end of the tissue was fastened to a hook in the bath and the other end was attached to a force displacement transducer connected to a polygraph. The tissues were allowed to equilibrate for 60 minutes under a load of 100-200 mg tension. […] Increasing concentrations of the test compound (0.1 - 1000 µM) were then added into the bath to generate cumulative dose response. […] Results were from three or more experiments expressed as mean ± S.E.

[6] = system: cat iris sphincter smooth muscle; assay: In vitro contraction of isolated iris sphincter smooth muscle in organ bath; assay type: cell-based; settings: for EC50: cumulative dose response, 37°C, read-out: ED50 (concentration that caused 50% of maximum contraction)
Description: as §4

rabbits [7] = settings: normotensive rabbits or humans, from literature; cited from earlier work
[8] = topical 5 µg/10 µl atropine, test compound 200 µg/10 µl

**Q.** For `CN1[C@@H]2CC[C@H]1C[C@@H](OC(=O)C(CO)c1ccccc1)C2` (some centres unmarked) [atropine], which “inhibition of IOP effect of the test compound by atropine” value (rabbits [1]; rabbits, 5 µg/20 µl atropine coinjected with test compound 10 µg/20 µl) is on record?
**A.** The value was “partial inhibition”.

**Q.** What about the “inhibition of IOP effect of the test compound by atropine” value (rabbits [1]; rabbits, topical 0.5% atropine solution every 2 hours (data not shown)) of the same compound?
**A.** The value was “no inhibitory effect”.

**Q.** What about the “inhibition of IOP reducing effect of the test compound by atropine” value (owl monkeys [2]; [8]) of the same compound?
**A.** The value was “no inhibitory effect”.

**Q.** And the “inhibition of miotic effect of the test compound by atropine” value (rabbits [3]; 5 µg atropine with test compound 10 µg/20 µl intracameral)?
**A.** The value was “completely inhibited”.

**Q.** And the “inhibition of miotic effect of the test compound by atropine” value (owl monkeys [4]; [8])?
**A.** Its value is “completely inhibited”.

**Q.** And the “inhibition of test compound-induced contraction by atropine” value ([5]; 10 nM atropine for 30 minutes before test compound)?
**A.** Its value is “competitive inhibition”.

**Q.** And the “effect of atropine in inhibiting the response of the iris relative to the ciliary” value ([6]; 10 nM atropine, iris versus ciliary muscle)?
**A.** Its value is 2.5 times.

**Q.** What about the “inhibition of test compound-induced contraction by atropine” value ([6]; cat iris sphincter muscle, 10 nM atropine for 30 minutes before test compound) of the same compound?
**A.** The value was “competitive inhibition”.

**Q.** Which results are given for `CC[C@@H]1C(=O)OC[C@@H]1Cc1cncn1C` [pilocarpine, (3S,4R)-3-ethyl-4-{(1-methyl-1H-imidazol-5-yl)methyl}-3,4-dihydro-2(3H)-furanone]?
**A.** effect on IOP (rabbits [1]; normotensive rabbits, intracameral 10 µg/20 µl, result in words): no hypotensive effect; also recorded: slight hypertensive action; decrease in IOP (owl monkeys [2]; topical 200 µg/10 µl, at 3 hours, effect decreased thereafter): about 3 mmHg; EC50 ([5]; Felis catus): 4 µM; EC50 ([6]; Felis catus, cat iris sphincter muscle): 4 µM; decrease in IOP (rabbits [7]): little or no decrease

**Q.** With `CN1CCC=C(c2ccno2)C1.O=C(O)C(=O)O` [test compound, Pyridine-1,2,3,6-tetrahydro-5-(5-isoxazolyl)-1-methyl-ethanedioate] as the compound, how does the “decrease in IOP” value (rabbits [1]; normotensive rabbits, intracameral 10 µg/20 µl, 5 hours after administration, change from time 0) read?
**A.** Its value is 6 mmHg.

**Q.** And the “duration of IOP decreasing activity” value (rabbits [1]; rabbits, intracameral 10 µg/20 µl, experimental period ended at 6 hours)?
**A.** Its value is over 6 h.

**Q.** What about the “maximum decrease in IOP” value (owl monkeys [2]; topical 200 µg/10 µl, after 5 and 6 hours) of the same compound?
**A.** Its value is 4 mmHg.

**Q.** What about the “duration of IOP reducing effect” value (owl monkeys [2]; topical 200 µg/10 µl, experimental period of 6 hours) of the same compound?
**A.** The value was over 6 h.

**Q.** What about the miosis (rabbits [3]; intracameral 10 µg/20 µl, effect of pilocarpine greater than that of the test compound) of the same compound?
**A.** The miosis was “caused miosis”.

**Q.** What about the “time of maximum miotic response” value (rabbits [3]; intracameral 10 µg/20 µl, followed by recovery) of the same compound?
**A.** The value was 0.5 h.

**Q.** What about the “miosis, decrease in pupil size” value (owl monkeys [4]; topical 200 µg/10 µl, at 1 hour) of the same compound?
**A.** Its value is 48%.

**Q.** What about the “miosis, recovered to % of 0 time” value (owl monkeys [4]; topical 200 µg/10 µl, within 3 to 6 hours) of the same compound?
**A.** The value was 15%.

**Q.** What about the EC50 [5] of the same compound?
**A.** Its EC50 is 30 µM.

**Q.** What about the EC50 ([6]; cat iris sphincter muscle) of the same compound?
**A.** Its EC50 is 20 µM.
